Article PMC8694143 (Microbiology Spectrum, 2021)

Tests used:
Assay in all cases: MIC determination in broth
Assay type in all cases: cell-based, Staphylococcus aureus
MRSA ATCC 33592 = conditions: Table S5; STIP3 variants, highest conc. tested 100 μg/mL; cation-adjusted MH broth, ~10^5 CFU/mL, 2-fold dilution series, 37°C, 16 h
Method: (§1) M. luteus ATCC 4698, S. aureus ATCC 29213, a panel of 7 MRSA (ATCC MP-2) strains, which includes ATCC BAA-41, BAA-42, BAA-44, BAA-1683, BAA-2094, BAA-2313, and 33592, and a series of additional bacterial isolates from human and veterinary cases were used in this study (Table S6). Bacterial strains were routinely grown in lysogeny broth (LB: 10 g/L tryptone, 5 g/L yeast extract, 10 g/L NaCl) at 30°C (M. luteus) or 37°C (Staphylococcus spp.) prior to use in specific experiments described below.
(§2) The MICs were measured for bioactive peptides identified from the initial screen. Cation-adjusted Mueller-Hinton (MH) broth was used as the growth medium for MIC determination experiments. Bacterial cultures were diluted to an OD of 5 × 10^−4 (∼10^5 CFU/mL) in 200 μL MH broth mixed with peptides in a 2-fold dilution series arrayed in 96-well plates. Plates were incubated without shaking at 30 or 37°C depending on the organism.

MRSA ATCC BAA-1683 = conditions: STIP3 variants, highest conc. tested 100 μg/mL; cation-adjusted MH broth, ~10^5 CFU/mL, 2-fold dilution series, 37°C, 16 h
Method: as §1, §2

MRSA ATCC BAA-2094 = conditions: STIP3 variants, highest conc. tested 100 μg/mL; cation-adjusted MH broth, ~10^5 CFU/mL, 2-fold dilution series, 37°C, 16 h
Method: as §1, §2

MRSA ATCC BAA-2313 = conditions: STIP3 variants, highest conc. tested 100 μg/mL; cation-adjusted MH broth, ~10^5 CFU/mL, 2-fold dilution series, 37°C, 16 h
Method: as §1, §2

MRSA ATCC BAA-41 = conditions: STIP3 variants, highest conc. tested 100 μg/mL; cation-adjusted MH broth, ~10^5 CFU/mL, 2-fold dilution series, 37°C, 16 h
Method: as §1, §2

MRSA ATCC BAA-42 = conditions: STIP3 variants, highest conc. tested 100 μg/mL; cation-adjusted MH broth, ~10^5 CFU/mL, 2-fold dilution series, 37°C, 16 h
Method: as §1, §2

MRSA ATCC BAA-44 = conditions: STIP3 variants, highest conc. tested 100 μg/mL; cation-adjusted MH broth, ~10^5 CFU/mL, 2-fold dilution series, 37°C, 16 h
Method: as §1, §2

S. aureus ATCC 29213 = conditions: STIP3 variants, highest conc. tested 100 μg/mL; cation-adjusted MH broth, ~10^5 CFU/mL, 2-fold dilution series, 37°C, 16 h
Method: as §1, §2

Row | Substance | MIC, S. aureus ATCC 33592 (SCCmec III) (MRSA ATCC 33592) | MIC, S. aureus ATCC BAA 1683 (SCCmec IV) (MRSA ATCC BAA-1683) | MIC, S. aureus ATCC BAA 2094 (SCCmec V) (MRSA ATCC BAA-2094) | MIC, S. aureus ATCC BAA 2313 (SCCmec XI) (MRSA ATCC BAA-2313) | MIC, S. aureus ATCC BAA 41 (SCCmec II) (MRSA ATCC BAA-41) | MIC, S. aureus ATCC BAA 42 (SCCmec VI) (MRSA ATCC BAA-42) | MIC, S. aureus ATCC BAA 44 (SCCmec I) (MRSA ATCC BAA-44) | MIC, S. aureus ATCC 29213 (S. aureus ATCC 29213)
1 | TVKALVKWILKTVAKFW-NH2 [STIP3-31, rationally designed STIP3-1 variant, C-terminal amide] | 25 µg/mL | 25 µg/mL | 25 µg/mL | 25 µg/mL | 25 µg/mL | 50 µg/mL | 25 µg/mL | 25 µg/mL
2 | TVKFLVKWILKWVAKFA [STIP3-25, rationally designed STIP3-1 variant] | > (The > symbol indicates that no inhibition was observed at 100 μg/mL for the STIP3 variants) | > (The > symbol indicates that no inhibition was observed at 100 μg/mL for the STIP3 variants) | > (The > symbol indicates that no inhibition was observed at 100 μg/mL for the STIP3 variants) | > (The > symbol indicates that no inhibition was observed at 100 μg/mL for the STIP3 variants) | > (The > symbol indicates that no inhibition was observed at 100 μg/mL for the STIP3 variants) | > (The > symbol indicates that no inhibition was observed at 100 μg/mL for the STIP3 variants) | > (The > symbol indicates that no inhibition was observed at 100 μg/mL for the STIP3 variants) | > (The > symbol indicates that no inhibition was observed at 100 μg/mL for the STIP3 variants)
3 | TVKGLVKWILATVKKFA [STIP3-16, rationally designed STIP3-1 variant] | 50 µg/mL | > (The > symbol indicates that no inhibition was observed at 100 μg/mL for the STIP3 variants) | 100 µg/mL | 100 µg/mL | 50 µg/mL | 50 µg/mL | 100 µg/mL | 100 µg/mL
4 | TVKGLVKWILNVVKKFA [STIP3-14, rationally designed STIP3-1 variant] | 12.5 µg/mL | 25 µg/mL | 50 µg/mL | 12.5 µg/mL | 25 µg/mL | 25 µg/mL | 25 µg/mL | 25 µg/mL
5 | TVKGLVKWILNVVKKFA-NH2 [STIP3-30, rationally designed STIP3-1 variant, C-terminal amide] | 12.5 µg/mL | 12.5 µg/mL | 25 µg/mL | 25 µg/mL | 25 µg/mL | 25 µg/mL | 12.5 µg/mL | 12.5 µg/mL
6 | TVKKLVKWILKTVKKFA [STIP3-18, rationally designed STIP3-1 variant] | 100 µg/mL | > (The > symbol indicates that no inhibition was observed at 100 μg/mL for the STIP3 variants) | 100 µg/mL | > (The > symbol indicates that no inhibition was observed at 100 μg/mL for the STIP3 variants) | 100 µg/mL | > (The > symbol indicates that no inhibition was observed at 100 μg/mL for the STIP3 variants) | 100 µg/mL | 100 µg/mL
